Laboratory results as given in paper PMC5947712, “High‐Throughput Kinetic Analysis for Target‐Directed Covalent Ligand Discovery” (Angewandte Chemie (International Ed. in English), 2018).

Experiments:
Cdk2(C177A) = molecular target: T1, Cdk2(C177A) (Homo sapiens, UniProt P24941, C177A); assay: Intact protein mass spectrometry of labelling, Cdk2(C177A); format: binding
T1 construct: made in house; host or cells: E. coli Tuner(DE3)
Method: (§1) Hs!Cyclin!A2!F!5’![…]!
(§2) Hs!Cyclin!A2!R!5’![…]!
(§3) Sc!CAK1!R!5’!GAATTCttatgggcttttctaattcttgcaag!
GSTBCdk2" and" GSTBcyclin" A2:! Harvested! cells! were! resuspended! in! 50! mM! HEPES! buffer! (pH7.5)! containing! 150! mM! NaCl,!
10!mM!MgCl2,!2!mM!dithiothreitol!(DTT),!0.5!mg!mLR1!lysozyme,!and!0.01%!Triton!XR100!at!4!˚C!and!incubated!for!30!minutes.!
After! sonication! and! centrifugation! (40! min,! 16000! g),! the! supernatant! was! incubated! for! 1! h! with! glutathioneRSepharose!
beads,! washed! with! lysis! buffer! and! the! desired! protein! eluted! with! 10! mM! GSH! (100! mM! Tris,! pH! 8).! After! incubation! the! deR
sired! protein! was! cleaved! from! the! GST! tag! with! PreScission! protease! (100:1)! at! 4 °C! for! 4! hours,! the! cleaved! GST! tag! was!
removed! with! glutathioneRSepharose! beads.! Cdk2! was! concentrated! and! then! loaded! onto! a! Superdex! 75! (16/60)! column,!
eluting! with! 100! mM! phosphate! buffer! containing! 50! mM! DTT.! Purified! Cdk2! was! concentrated! to! 10! mg! mLR1!and! stored! at!–
80! ˚C.! Cyclin! A2! was! purified! by! glutathioneRSepharose! affinity! as! described! above! with! the! following! amendments:! 100! mM!
MgCl2!was! added! after! GST! cleavage! to! minimise! protein! aggregation! and! gel! filtration! was! performed! with! 50! mM! […]
(§4) labelling! reached! completion! (as! monitored! by! fluorescence! quench! assay! and/or! intact! protein! mass! spectrometry).! […]

Cdk2(WT) = Cdk2(WT) (Homo sapiens, UniProt P24941); assay: Intact protein mass spectrometry of labelling, Cdk2(WT); format: binding; design: made in house; host or cells: E. coli Tuner(DE3)
Method: Supplementary, Figure, S6!|!Acrylamide, 1,selectivity, profile.!Exponential! regressions! from!kinetic! analysis! of! acrylamide!1!
(0.5!mM)!in!reaction!with!various!thiols!(5!µM).!
Supplementary, Figure, S7!|!Cdk2(WT),is, mono%modified, by, acrylamide, 1.!(a)!Cdk2(WT)! was! phosphorylated! with! CAK1.!
pCdk2(WT)! (5! µM)! was! then! incubated! with! acrylamide!1!(0.5! mM)! in! 100! mM! phosphate! buffer!(pH! 8.0)! at! 4! ˚C! for! 18! hours.!
IntactRprotein! mass! spectra! show! complete! phosphorylation! (ΔMW! =! 80! Da)! and! complete! acrylamide! labeling! (ΔMW! =!
288!Da).!(b)!Cdk2(WT)! (5! µM)! was! incubated! with! acrylamide!1!(0.5! mM)! in! 100! mM! phosphate! buffer! (pH! 8.0)!in! the!presR
ence! or! absence! of! GSH! (1! mM)! at! room! temperature.!The! degree! of! labelling! was! monitored! by!intactRprotein! mass!specR
trometry!after!6.25!and!24!h.!The!presence!of!1!mM!GSH!was!found!to!slow!the!rate!of!Cdk2!modification!by!a!factor!of!~2.! […]
as §1, §2, §3
GSTBCdk2" and" GSTBcyclin" A2:! Harvested! cells! were! resuspended! in! 50! mM! HEPES! buffer! (pH7.5)! containing! 150! mM! NaCl,! […]
as §4

C=CC(=O)N1CCN(C(=O)OC(C)(C)C)c2ccccc21 [Acrylamide 1]
modification of Cdk2(C177A) by intact protein mass spectrometry (Cdk2(C177A)): unaffected | factor by which 1 mM GSH slows the rate of Cdk2 modification (Cdk2(WT); Cdk2(WT) 5 µM, compound 0.5 mM, pH 8.0, room temperature, monitored after 6.25 and 24 h): ~ 2 | modification of Cdk2(WT) by intact protein mass spectrometry (Cdk2(WT); even in the presence of millimolar glutathione): mono‐modifies
